# In patent US9078446B2, “Use of N-(tetrazol-4-yl)- or N-(triazol-3-yl)arylcarboxamides or their salts for controlling unwanted plants in areas of transgenic crop plants being tolerant to HPPD inhibitor herbicides” (BAYER INTELLECTUAL PROPERTY GMBH, priority 2011, dated 2015):
# Tests used:
# Format in all cases: in vivo
# [1] = tested on: non-transformed tobacco plants (Wt); assay: Symptoms due to herbicide application on tobacco plants (damage classes 0-3); settings: 50 g Al/ha, one week after application
# Excerpt: (§1) Seeds harvested from TO transformants will be put on standard soil for germination. Three weeks later plantlets (T1) will be transferred to single pots and grown under standard cultivation conditions (PCT/EP2010/070575, published as WO 2011/076889). Two weeks later, plants were sprayed with several N-(tetrazol-4-yl)- or N-(triazol-3-yl)arylcarboxamides as defined above.
# (§2) Tables F1 to F5: Evaluation of the Symptoms Observed Due to the Application of the Herbicides on Transgenic Tobacco Plants, Expressing the Mutant Pseudomonas fluorescens HPPD G336W, the Avena HPPD (AvHPPD), the HPPD from Kordia algicida FMP27 or the HPPD from Blepharisma japonicum (FMP37), Compared to Non-Tranformed Tobacco Plants (“Wt”).
# (§3) The herbicides (with “g Al/ha” meaning “g active ingredient/ha”) were applied on 8 to 10 plants originated from 1 to 3 independent transgenic events per transgene.
# (§4) The symptoms were evaluated and classified as following: • 3=Very strong damage • 2=Strong damage • 1=Light and transient damage • 0=No damage
# [2] = tested on: transgenic tobacco plants expressing HPPD from Kordia algicida FMP27; assay: Symptoms due to herbicide application on transgenic tobacco plants (damage classes 0-3); settings: 50 g Al/ha, one week after application
# Excerpt: (§5) Genes coding for the selected HPPD were obtained from a member of the group of organisms consisting of Avena sativa, Pseudomonas fluorescens mutant G336W, Blepharisma japonicum and Kordia algicida and cloned into the binary vector pBin19 allowing the integration of DNA into the tobacco genome, under the control of the CaMV35S promoter. For the cloning procedures, see A2 above for Avena sativa, see B2 above for Pseudomonas fluorescens, mutant G336W, see PCT/EP2010/070567 (published as WO 2011/076882, Example 5; for Blepharisma japonicum (FMP37) and see PCT/EP2010/070575, Example 5 for Kordia algicida (FMP27). Between the sequence corresponding to the promoter and the sequence coding for the HPPD a DNA sequence coding for a transit peptide to the chloroplast was inserted, in order to add at the N-terminal extremity of the protein a target signal to allow the localization of the HPPD protein into the plant chloroplast.
# as §1, §2, §3, §4
# [3] = tested on: transgenic tobacco plants expressing mutant Pseudomonas fluorescens HPPD G336W (PfHPPD-G336W); assay: as above; settings: PfHPPD-G336W line 646; 50 g Al/ha; one week after application
# Excerpt: as §5, §1, §2, §3, §4
# [4] = tested on: transgenic tobacco plants expressing Avena HPPD (AvHPPD); assay: as above; settings: AvHPPD line 659; 50 g Al/ha; one week after application
# Excerpt: as §5, §1, §2, §3, §4
# [5] = tested on: transgenic tobacco plants expressing HPPD from Blepharisma japonicum (FMP37); assay: as above; settings: 50 g Al/ha, one week after application
# Excerpt: as §5, §1, §2, §3, §4
# [6] = tested on: cotton plants expressing FMP 27 and FMP 37; assay: Tolerance to HPPD inhibitors of cotton plants expressing tolerant HPPD enzymes; settings: T1 cotton plants; one week after application
# Excerpt: Genes coding for the selected HPPD were obtained from a member of the group of organisms consisting of Blepharisma japonicum and Kordia algicida and cloned into an appropriate binary vector allowing the integration of DNA into the cotton genome, under the control of the CaMV35S promoter. For the respective cloning procedures, see WO2011076882 (PCT/EP2010/070567), Example 11; for Blepharisma japonicum (FMP37) and WO2011076889 (PCT/EP2010/070575), Example 11 for Kordia algicida (FMP27).
# Between the sequence corresponding to the promoter and the sequence coding for the HPPD a DNA sequence coding for a transit peptide to the chloroplast was inserted, in order to add at the N-terminal extremity of the protein a target signal to allow the localization of the HPPD protein into the plant chloroplast. Cotton transformation was achieved as described in Example 12 of WO2011076882 (PCT/EP2010/070567) for Blepharisma japonicum (FMP37) and WO2011076889 (PCT/EP2010/070575) for Kordia algicida (FMP27). Seeds from T0 events showing tolerance to tembotrione were harvested.
# T1 Cotton seeds were transferred to single pots and grown under standard cultivation conditions, see WO2011076882 (PCT/EP2010/070567) for Blepharisma japonicum (FMP37) and WO2011076889 (PCT/EP2010/070575) for Kordia algicida (FMP27).
# At least 4 weeks later, plants will be sprayed with several N-(tetrazol-4-yl)- or N-(triazol-3-yl)arylcarboxamides as defined above.
# [7] = tested on: soybean plants expressing Pseudomonas fluorescens G336W mutant, FMP 27 and FMP 37; assay: Tolerance to HPPD inhibitors of soybean plants expressing tolerant HPPD enzymes; settings: T1 soybean plants; one week after application
# Excerpt: Genes coding for the selected HPPD were obtained from a member of the group of organisms consisting of Blepharisma japonicum and Kordia algicida and cloned into an appropriate binary vector allowing the integration of DNA into the soybean genome, under the control of the CaMV35S promoter. For the respective cloning procedures, see WO2011076882 (PCT/EP2010/070567), Example 9; for Blepharisma japonicum (FMP37) and WO2011076889 (PCT/EP2010/070575), Example 9 for Kordia algicida (FMP27).
# Between the sequence corresponding to the promoter and the sequence coding for the HPPD a DNA sequence coding for a transit peptide to the chloroplast was inserted, in order to add at the N-terminal extremity of the protein a target signal to allow the localization of the HPPD protein into the plant chloroplast. By using the vectors “pFCO112” (Blepharisma japonicum, WO2011076882), pFCO116 (Korida algicida, WO2011076889), and pFCO117” (see Example B2, above), soybean transformation was achieved as described in Example 10 of WO2011076882 (PCT/EP2010/070567) for Blepharisma japonicum (FMP37) and WO2011076889 (PCT/EP2010/070575) for Kordia algicida (FMP27). Seeds from TO events showing tolerance to tembotrione were harvested.
# T1 Soybean seeds were transferred to single pots and grown under standard cultivation conditions, see WO2011076882.
# Two weeks later, plants will be sprayed with several N-(tetrazol-4-yl)- or N-(triazol-3-yl)arylcarboxamides as defined above.
# [8] = tested on: transgenic tobacco plants expressing tolerant HPPD enzymes; assay: Tolerance of tobacco plants expressing tolerant HPPD enzymes (all transgenes)
# Excerpt: as §5, §1, §2, §3, §4
compound,measurement,setting,value
CCOc1c(S(C)(=O)=O)ccc(C(=O)Nc2nnnn2C)c1Cl [Compound 4-278],number of plants with Damage 0 (No damage),[1],0
same,number of plants with Damage 1 (Light and transient damage),[1],0
same,number of plants with Damage 2 (Strong damage),[1],0
same,number of plants with Damage 3 (Very strong damage),[1],10
same,number of plants with Damage 0 (No damage),[2]; FMP27 line 733,6
same,number of plants with Damage 1 (Light and transient damage),[2]; FMP27 line 733,4
same,number of plants with Damage 2 (Strong damage),[2]; FMP27 line 733,0
same,number of plants with Damage 3 (Very strong damage),[2]; FMP27 line 733,0
same,number of plants with Damage 0 (No damage),[2]; FMP27 line 734,6
same,number of plants with Damage 1 (Light and transient damage),[2]; FMP27 line 734,3
same,number of plants with Damage 2 (Strong damage),[2]; FMP27 line 734,0
same,number of plants with Damage 3 (Very strong damage),[2]; FMP27 line 734,1
same,number of plants with Damage 0 (No damage),[2]; FMP27 line 735,6
same,number of plants with Damage 1 (Light and transient damage),[2]; FMP27 line 735,2
same,number of plants with Damage 2 (Strong damage),[2]; FMP27 line 735,0
same,number of plants with Damage 3 (Very strong damage),[2]; FMP27 line 735,2
same,number of plants with Damage 0 (No damage),[3],6
same,number of plants with Damage 1 (Light and transient damage),[3],3
same,number of plants with Damage 2 (Strong damage),[3],0
same,number of plants with Damage 3 (Very strong damage),[3],1
same,number of plants with Damage 0 (No damage),[4],9
same,number of plants with Damage 1 (Light and transient damage),[4],0
same,number of plants with Damage 2 (Strong damage),[4],0
same,number of plants with Damage 3 (Very strong damage),[4],1
same,number of plants with Damage 0 (No damage),[5]; FMP37 line 749,5
same,number of plants with Damage 1 (Light and transient damage),[5]; FMP37 line 749,4
same,number of plants with Damage 2 (Strong damage),[5]; FMP37 line 749,0
same,number of plants with Damage 3 (Very strong damage),[5]; FMP37 line 749,1
same,number of plants with Damage 0 (No damage),[5]; FMP37 line 754,5
same,number of plants with Damage 1 (Light and transient damage),[5]; FMP37 line 754,4
same,number of plants with Damage 2 (Strong damage),[5]; FMP37 line 754,0
same,number of plants with Damage 3 (Very strong damage),[5]; FMP37 line 754,1
same,number of plants with Damage 0 (No damage),[5]; FMP37 line 795,4
same,number of plants with Damage 1 (Light and transient damage),[5]; FMP37 line 795,3
same,number of plants with Damage 2 (Strong damage),[5]; FMP37 line 795,0
same,number of plants with Damage 3 (Very strong damage),[5]; FMP37 line 795,3
same,tolerance of transgenic plants compared to the wild-type cotton plants,[6],superior tolerance
same,tolerance of transgenic plants compared to the wild-type soybean plants,[7],superior tolerance
same,tolerance of the transgenic tobacco plants (symptoms due to application of the herbicide),"[8]; T1 plants sprayed, evaluated one week after application",good tolerance
same,sensitivity of transgenic tobacco plants compared to wild type (wt) plants,"[8]; all tested independent lines, agronomically relevant dose",less sensitive
